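Test compounds were applied to cells in 96-well plates for 48 hours at 5 doses. GI50 marks 50% less growth.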 Calls of active or inactive are those of the source. Rule as the data show it: active = GI50 up to about 1.1 µM and inactive = higher.
Key:
Test in all cases: NCI-60 cell line screen, 48 h
786-0 = system: 786-0
A498 = system: A498
A549 = system: A549
ACHN = system: ACHN
BT-549 = system: BT-549
CAKI-1 = system: CAKI-1
CCRF-CEM = system: CCRF-CEM
COLO 205 = system: COLO 205
DU-145 = system: DU-145
EKVX = system: EKVX
HCC 2998 = system: HCC 2998
HCT-116 = system: HCT-116
HCT-15 = system: HCT-15
HOP-62 = system: HOP-62
HOP-92 = system: HOP-92
HT-29 = system: HT-29
Hs-578T = system: Hs-578T
IGROV-1 = system: IGROV-1
K562 = system: K562
KM12 = system: KM12
LOX IMVI = system: LOX IMVI
M14 = system: M14
MCF7 = system: MCF7
MDA-MB-231 = system: MDA-MB-231
MDA-MB-435 = system: MDA-MB-435
MDA-N = system: MDA-N
MOLT-4 = system: MOLT-4
Malme-3M = system: Malme-3M
NCI-H226 = system: NCI-H226
NCI-H23 = system: NCI-H23
NCI-H460 = system: NCI-H460
NCI-H522 = system: NCI-H522
NCI/ADR-RES = system: NCI/ADR-RES
OVCAR-3 = system: OVCAR-3
OVCAR-4 = system: OVCAR-4
OVCAR-5 = system: OVCAR-5
OVCAR-8 = system: OVCAR-8
PC-3 = system: PC-3
RPMI-8226 = system: RPMI-8226
RXF 393 = system: RXF 393
SF-268 = system: SF-268
SF-295 = system: SF-295
SF-539 = system: SF-539
SK-MEL-28 = system: SK-MEL-28
SK-MEL-2 = system: SK-MEL-2
SK-MEL-5 = system: SK-MEL-5
SK-OV-3 = system: SK-OV-3
SN12C = system: SN12C
SNB-19 = system: SNB-19
SNB-75 = system: SNB-75
SW-620 = system: SW-620
T47D = system: T47D
TK-10 = system: TK-10
U-251 = system: U-251
UACC-257 = system: UACC-257
UACC-62 = system: UACC-62
UO-31 = system: UO-31
HL-60 = system: HL-60

## Cc1n[nH]c(=O)n1-n1cccc1
786-0
  GI50: > 100 µM (inactive)
A498
  GI50: > 100 µM (inactive)
A549
  GI50: > 100 µM (inactive)
ACHN
  GI50: > 100 µM (inactive)
BT-549
  GI50: > 100 µM (inactive)
CAKI-1
  GI50: > 100 µM (inactive)
CCRF-CEM
  GI50: > 100 µM (inactive)
COLO 205
  GI50: > 100 µM (inactive)
DU-145
  GI50: > 100 µM (inactive)
EKVX
  GI50: > 100 µM (inactive)
HCC 2998
  GI50: > 100 µM (inactive)
HCT-116
  GI50: > 100 µM (inactive)
HCT-15
  GI50: > 100 µM
HOP-62
  GI50: > 100 µM (inactive)
HOP-92
  GI50: > 100 µM (inactive)
HT-29
  GI50: > 100 µM (inactive)
Hs-578T
  GI50: > 100 µM (inactive)
IGROV-1
  GI50: > 100 µM (inactive)
K562
  GI50: > 100 µM (inactive)
KM12
  GI50: > 100 µM (inactive)
LOX IMVI
  GI50: > 100 µM (inactive)
M14
  GI50: > 100 µM (inactive)
MCF7
  GI50: > 100 µM (inactive)
MDA-MB-231
  GI50: > 100 µM (inactive)
MDA-MB-435
  GI50: > 100 µM (inactive)
MDA-N
  GI50: > 100 µM (inactive)
MOLT-4
  GI50: > 100 µM (inactive)
Malme-3M
  GI50: > 100 µM (inactive)
NCI-H226
  GI50: > 100 µM (inactive)
NCI-H23
  GI50: > 100 µM (inactive)
NCI-H460
  GI50: > 100 µM (inactive)
NCI-H522
  GI50: > 100 µM (inactive)
NCI/ADR-RES
  GI50: > 100 µM (inactive)
OVCAR-3
  GI50: > 100 µM (inactive)
OVCAR-4
  GI50: > 100 µM (inactive)
OVCAR-5
  GI50: > 100 µM (inactive)
OVCAR-8
  GI50: > 100 µM (inactive)
PC-3
  GI50: > 100 µM (inactive)
RPMI-8226
  GI50: > 100 µM (inactive)
RXF 393
  GI50: > 100 µM (inactive)
SF-268
  GI50: > 100 µM (inactive)
SF-295
  GI50: > 100 µM (inactive)
SF-539
  GI50: > 100 µM (inactive)
SK-MEL-28
  GI50: > 100 µM (inactive)
SK-MEL-2
  GI50: > 100 µM (inactive)
SK-MEL-5
  GI50: > 100 µM (inactive)
SK-OV-3
  GI50: > 100 µM (inactive)
SN12C
  GI50: > 100 µM (inactive)
SNB-19
  GI50: > 100 µM (inactive)
SNB-75
  GI50: > 100 µM (inactive)
SW-620
  GI50: > 100 µM (inactive)
T47D
  GI50: > 100 µM (inactive)
TK-10
  GI50: > 100 µM (inactive)
U-251
  GI50: > 100 µM (inactive)
UACC-257
  GI50: > 100 µM (inactive)
UACC-62
  GI50: > 100 µM (inactive)
UO-31
  GI50: > 100 µM (inactive)

## CCn1c(CCCc2nc3c(=O)n(C)c(=O)n(C)c3[nH]2)nc2c1c(=O)n(C)c(=O)n2C
786-0
  GI50: > 100 µM (inactive)
A498
  GI50: > 100 µM (inactive)
A549
  GI50: > 100 µM (inactive)
ACHN
  GI50: > 100 µM (inactive)
BT-549
  GI50: > 100 µM (inactive)
CAKI-1
  GI50: > 100 µM (inactive)
CCRF-CEM
  GI50: > 100 µM (inactive)
COLO 205
  GI50: 12.1 µM (inactive)
DU-145
  GI50: > 100 µM (inactive)
EKVX
  GI50: 43 µM (inactive)
HCC 2998
  GI50: > 100 µM (inactive)
HCT-116
  GI50: > 100 µM (inactive)
HCT-15
  GI50: > 100 µM
HL-60
  GI50: 77.8 µM (inactive)
HOP-62
  GI50: > 100 µM (inactive)
HT-29
  GI50: > 100 µM (inactive)
Hs-578T
  GI50: > 100 µM (inactive)
IGROV-1
  GI50: > 100 µM (inactive)
K562
  GI50: 75.7 µM (inactive)
KM12
  GI50: > 100 µM (inactive)
LOX IMVI
  GI50: > 100 µM (inactive)
M14
  GI50: > 100 µM (inactive)
MCF7
  GI50: > 100 µM (inactive)
MDA-MB-231
  GI50: > 100 µM (inactive)
MDA-MB-435
  GI50: > 100 µM (inactive)
MDA-N
  GI50: > 100 µM (inactive)
MOLT-4
  GI50: > 100 µM (inactive)
Malme-3M
  GI50: > 100 µM (inactive)
NCI-H226
  GI50: 14.8 µM (inactive)
NCI-H23
  GI50: > 100 µM (inactive)
NCI-H460
  GI50: > 100 µM (inactive)
NCI-H522
  GI50: > 100 µM (inactive)
NCI/ADR-RES
  GI50: > 100 µM (inactive)
OVCAR-3
  GI50: > 100 µM (inactive)
OVCAR-4
  GI50: > 100 µM (inactive)
OVCAR-5
  GI50: > 100 µM (inactive)
OVCAR-8
  GI50: > 100 µM (inactive)
PC-3
  GI50: > 100 µM (inactive)
RPMI-8226
  GI50: > 100 µM (inactive)
RXF 393
  GI50: > 100 µM (inactive)
SF-268
  GI50: > 100 µM (inactive)
SF-295
  GI50: > 100 µM (inactive)
SF-539
  GI50: 14.9 µM (inactive)
SK-MEL-28
  GI50: > 100 µM (inactive)
SK-MEL-5
  GI50: 14 µM (inactive)
SK-OV-3
  GI50: > 100 µM (inactive)
SN12C
  GI50: 46 µM (inactive)
SNB-19
  GI50: > 100 µM (inactive)
SW-620
  GI50: > 100 µM (inactive)
T47D
  GI50: > 100 µM (inactive)
TK-10
  GI50: > 100 µM (inactive)
U-251
  GI50: > 100 µM (inactive)
UACC-257
  GI50: > 100 µM (inactive)
UACC-62
  GI50: > 100 µM (inactive)
UO-31
  GI50: > 100 µM (inactive)

From ChEMBL document CHEMBL1201862, “PubChem BioAssay data set” (2004)
